Data: ChEMBL document CHEMBL3727361, “Nitrogen bicyclic compounds as inhibitors for Scyl1 and Grk5” (2014)

system: Beta-TC6; assay: Increase in insulin release in mouse BetaTC6 cells assessed as relative insulin release activity at 10 uM incubated for 2 to 4 hrs by FRET based HTRF assay relative to sunitinib; assay type: functional

SMILES	Activity
COc1cc(-c2cnc3ccc(-c4cccc(OC(F)(F)F)c4)nn23)ccc1O	10%
COc1ccc(-c2cnc3cnc(-c4ccc(N)nc4)cn23)cc1	20%
CN(C)c1cccc(-c2cnc3cnc(-c4cccs4)cn23)c1	20%
CN(C)c1ccc(-c2cnc3cnc(-c4cccc(NS(C)(=O)=O)c4)cn23)cc1	20%
CC(C)N1CCN(c2ccc(-c3cn4c(-c5ccc(O)cc5)cnc4cn3)cc2)CC1	20%
c1ccc(-c2cnc3cnc(-c4cccs4)cn23)cc1	20%
NC(=O)c1cccc(-c2ccc3nnc(-c4cscn4)n3c2)c1	20%
COc1cc(-c2cnc3cnc(-c4cnn(C)c4)cn23)ccc1O	50%
N#Cc1ccc(-c2cnc3cnc(-c4ccc(CO)cc4)cn23)cc1	20%
CN(C)c1ccc(-c2cnc3cnc(-c4ccc(O)cc4)cn23)cc1	50%
COc1ccc(CNc2ccc3ncc(-c4ccc5[nH]ccc5c4)n3n2)cc1	20%
CN1CCN(c2ccc(-c3cn4c(-c5ccc(C(=O)N(C)C)cc5)cnc4cn3)cn2)CC1	20%
NC(=O)c1ccc(-c2ccc3ncc(-c4cccc(OC(F)(F)F)c4)n3n2)cc1	20%
CN(C)CCCNC(=O)c1ccc(-c2ccc3nnc(-c4cccc(C(F)(F)F)c4)n3c2)cc1	20%
CN(C)CCCOc1ccc(-c2cn3c(-c4ccc(N(C)C)cc4)cnc3cn2)cn1	50%
CN(C)c1ccc(-c2cnc3cnc(-c4ccc(C(=O)N5CCOCC5)cc4)cn23)cc1	20%
Brc1cnc2ccc(NCCCN3CCOCC3)nn12	10%
Fc1cccc(-c2cnc3cnc(-c4cccs4)cn23)c1	20%
O=C(NCCO)c1ccc(-c2cn3c(-c4ccsc4)cnc3cn2)cc1	10%
COc1cccc(-c2ccc3ncc(-c4cccc(Cl)c4)n3n2)c1	10%
COc1ccc(-c2ccc3nnc(-c4ccc(O)c(OC)c4)n3c2)cn1	50%
c1csc(-c2cn3c(-c4ccsc4)cnc3cn2)c1	50%

SMILES	Activity
COc1ccc(-c2cn3c(-c4cccc(O)c4)cnc3cn2)cn1	20%
FC(F)(F)c1cccc(-c2cnc3ccc(C4CC4)nn23)c1	10%
c1csc(-c2cnc3cnc(-c4ccsc4)cn23)c1	50%
OCc1ccc(-c2cnc3ccc(-c4cncnc4)nn23)cc1	10%
COc1ccc(-c2cnc3ccc(NCc4ccccn4)nn23)cc1OC	20%
Cc1cccc(-c2cn3c(-c4ccc(CCC(=O)O)cc4)cnc3cn2)c1C	50%
C(=C\c1cn2c(-c3cccs3)cnc2cn1)/c1ccccc1	20%
Cn1ccc2cc(-c3cnc4cnc(-c5cccc(C(=O)NCCO)c5)cn34)ccc21	20%
Fc1ccc(-c2cn3c(-c4ccsc4)cnc3cn2)cc1Cl	20%
CS(=O)(=O)Nc1cccc(-c2ccc3nnc(-c4ccccc4)n3c2)c1	50%
Cc1ccccc1-c1nnc2ccc(-c3cccc(C(=O)NCCO)c3)cn12	10%
CC(C(=O)Nc1cnc2cnc(-c3ccc4c(c3)OCO4)cn12)c1ccccc1 (centres undefined)	20%
O=C(O)CCc1ccc(-c2cnc3cnc(-c4cccc(Cl)c4)cn23)cc1	20%
OCc1ccc(-c2cn3c(-c4cccc(Cl)c4)cnc3cn2)cc1	20%
COc1cc(OC)cc(-c2cn3c(-c4ccsc4)cnc3cn2)c1	20%
CC(=O)Nc1cccc(-c2ccc3nnc(-c4ccc5nccnc5c4)n3c2)c1	50%
Nc1ccc(-c2ccc3nnc(-c4cccc(C(F)(F)F)c4)n3c2)cn1	20%
CC(=O)Nc1ccc(-c2ccc3nnc(-c4cccc(Cl)c4)n3c2)cc1	20%
CC(C)Oc1cccc(-c2cn3c(-c4ccc5c(c4)OCO5)cnc3cn2)c1	50%
c1cnn2c(-c3ccc4c(c3)CCO4)cnc2c1	10%
Fc1cccc(-c2cn3c(-c4ccc5c(c4)OCO5)cnc3cn2)c1	50%
FC(F)(F)Oc1cccc(-c2nnc3ccc(C#Cc4ccccc4)cn23)c1	20%

SMILES	Activity
N#Cc1cccc(-c2cnc3cccnn23)c1	20%
FC(F)(F)c1cccc(C#Cc2ccc3nnc(-c4ccncc4)n3c2)c1	10%
Clc1cccc(-c2nnc3ccc(-c4cncc5ccccc45)cn23)c1	50%
CN(C)c1cccc(-c2ccc3nnc(-c4cscn4)n3c2)c1	50%
CN(C)C(=O)c1ccc(-c2ccc3nnc(-c4cccc(C(F)(F)F)c4)n3c2)cc1	20%
Cc1ccccc1-c1cn2c(-c3ccc(CCC(=O)O)cc3)cnc2cn1	20%
c1csc(-c2cn3c(-c4ccc5c(c4)OCO5)cnc3cn2)c1	50%
CN(C)CCCNC(=O)c1ccc(-c2cn3c(-c4ccc5c(ccn5C)c4)cnc3cn2)cc1	20%
c1csc(-c2cn3c(-c4ccncc4)cnc3cn2)c1	20%
CCOc1cccc(-c2cn3c(-c4ccc(CCC(=O)O)cc4)cnc3cn2)c1	>=100%
COc1cccc(CC(=O)Nc2cnc3cnc(-c4cnn(C)c4)cn23)c1	10%
c1cncc(-c2cnc3ccc(-c4ccoc4)nn23)c1	20%
COc1cc(-c2cnc3cnc(-c4ccc(N5CCN(C)CC5)nc4)cn23)ccc1O	20%
O=C(NCCO)c1ccc(-c2cnc3cccnn23)cc1	10%
COc1cccc(-c2cn3c(-c4cccc(O)c4)cnc3cn2)c1F	20%
COc1ccc(-c2ccc3nnc(-c4ccc(OCCCN(C)C)cc4)n3c2)cc1OC	50%
Oc1cccc(-c2ccc3nnc(-c4ccccn4)n3c2)c1	50%
CS(=O)(=O)Nc1cccc(-c2ccc3ncc(-c4ccncc4)n3n2)c1	20%
O=C(NC1CC1)c1ccc(-c2cnc3cccnn23)cc1	10%
CC(C)Oc1cccc(-c2cn3c(-c4cccs4)cnc3cn2)c1	20%
Oc1cccc(-c2cnc3ccc(-c4cccc5ncccc45)nn23)c1	10%
OCc1cccc(-c2cnc3ccc(-c4cccc(Oc5ccccc5)c4)nn23)c1	20%

SMILES	Activity
CC(=O)Nc1ccc(-c2cnc3ccc(-c4ccc(S(C)(=O)=O)cc4)nn23)cc1	10%
CN1CCN(C(=O)c2cccc(-c3cnc4cnc(-c5ccc6c(ccn6C)c5)cn34)c2)CC1	20%
c1cncc(CCNc2ccc3ncc(-c4ccc5ccccc5c4)n3n2)c1	10%
CC(C)(C)c1ccc(-c2cnc3cnc(-c4ccc(N)nc4)cn23)cc1	10%
Clc1cccc(-c2nnc3ccc(-c4ncccn4)cn23)c1	10%
Oc1ccc(-c2cn3c(-c4cccs4)cnc3cn2)cc1	50%
Oc1cccc(-c2cnc3ccc(-c4ccc(F)cc4)nn23)c1	20%
OCc1ccc(-c2cn3c(-c4cccc(F)c4)cnc3cn2)cc1	20%
COc1ccccc1-c1ccc2ncc(-c3cccc(OC(F)(F)F)c3)n2n1	10%
COc1cccc(C#Cc2ccc3nnc(-c4cccc(OC(F)(F)F)c4)n3c2)c1	20%
FC(F)(F)c1cccc(-c2cnc3ccc(-c4ccncc4)nn23)c1	20%
COc1cncc(-c2cnc3ccc(Cc4ccc(F)cc4)nn23)c1	20%
COc1cc(-c2ccc3ncc(-c4ccc(F)c(Cl)c4)n3n2)cc(OC)c1OC	10%
CN(C)c1ccccc1-c1cn2c(-c3cccs3)cnc2cn1	20%
Cc1cc(-c2cnc3cccnn23)cc(C)c1O	10%
COc1ccc(-c2cnc3ccc(NCc4cccs4)nn23)c(OC)c1	20%
Oc1cccc(-c2nnc3ccc(-c4cccc5ncccc45)cn23)c1	20%
Cc1ccccc1-c1cnc2cnc(-c3cccc(F)c3)cn12	10%
Fc1cccc(-c2cnc3cnc(-c4ccc5c(c4)OCO5)cn23)c1	20%
Oc1cccc(-c2cnc3cnc(-c4cccc(Cl)c4)cn23)c1	20%
O=C(c1ccc(-c2ccc3nnc(-c4cccc(C(F)(F)F)c4)n3c2)cc1)N1CCOCC1	20%
O=C(NC1CC1)c1ccc(-c2cn3c(-c4ccccc4)cnc3cn2)cc1	20%

SMILES	Activity
CCOc1cccc(-c2cn3c(-c4ccc(O)c(OC)c4)cnc3cn2)c1	50%
N#Cc1ccc(-c2cnc3cnc(-c4ccccc4)cn23)cc1	20%
COc1cc(OC)cc(-c2cn3c(-c4cccc(O)c4)cnc3cn2)c1	20%
CN(C)C(=O)c1ccc(-c2cnc3cnc(-c4ccsc4)cn23)cc1	20%
CC(=O)Nc1cccc(-c2cnc3ccc(NCc4ccc(F)cc4)nn23)c1	10%
c1cc2cc(-c3ccc4nnc(-c5cscn5)n4c3)ccc2[nH]1	50%
COc1ccc(CNc2ccc3ncc(-c4ccc(O)cc4)n3n2)cc1	20%
CC(=O)Nc1cccc(-c2cn3c(-c4ccc(F)c(Cl)c4)cnc3cn2)c1	20%
COc1cccc(-c2cn3c(NC(=O)Cc4ccsc4)cnc3cn2)c1	20%
CC(=O)Nc1cccc(-c2cn3c(-c4ccc(C(=O)N(C)C)cc4)cnc3cn2)c1	20%
Clc1cccc(-c2ccc3nnc(-c4ccc5c(c4)OCO5)n3c2)c1	20%
Cn1cc(-c2cnc3cnc(-c4cc5ccccc5s4)cn23)cn1	20%
c1cc(-c2cn3c(-c4ccc5c(c4)OCO5)cnc3cn2)cs1	50%
CCOc1cccc(-c2cn3c(-c4ccc5c(c4)OCO5)cnc3cn2)c1	50%
Oc1cccc(-c2cnc3cnc(/C=C/c4ccccc4)cn23)c1	20%
CN1CCN(c2ccc(-c3cn4c(-c5cccc(O)c5)cnc4cn3)cc2)CC1	20%
c1nc(-c2nnc3ccc(-c4ccc(N5CCOCC5)cc4)cn23)cs1	50%
O=C(Nc1cnc2cnc(-c3cnn(Cc4ccccc4)c3)cn12)C1CCC1	20%
c1cnc2ccc(-c3ccc4nnc(-c5cscn5)n4c3)cc2c1	50%
CS(=O)(=O)c1ccc(-c2cnc3ccc(Cc4ccccc4)nn23)cc1	10%
OCC#Cc1ccc2nnc(-c3ccc4c(c3)OCO4)n2c1	20%
